Results reported in patent US6603023B2 (priority 1996, dated 2003).
Like-named read-outs stand apart in the source and are kept apart here.

Tests used:
[1] = test system: HT-29 Colon Adenocarcinoma; assay: HT-29 xenograft; type: in vivo, nude mice
[2] = test system: human ovarian UL3-C tumor; assay: UL3-C ovarian tumor xenograft
[3] = test system: CCRF-CEM/Taxol®; assay: CCRF-CEM/Taxol xenograft, i.v. 6 h infusion; type: in vivo, nude mice
Description: Treatment on days 6, 8, 10, 12 and 14.
Treatment on days 19, 21, 23, 25, 27, 39, 41, 43, 45 and 47.

[4] = Stability in human plasma (HPLC); type: in vitro ADME
Description: Sample Preparation. To 300 microliters of spiked plasma are added 30 microliters of methanol. The mixture is agitated and allowed to stand for 2 minutes. Then 600 microliters of methanol are added. The mixture is centrifuged. The supernatant is removed for analysis by HPLC. Analyses were performed under the following chrmotographic conditions: Column: Nova-Pak C18, 15 cm. Eluant: 50% acetonitrile/water with 0.8% triethylamine, 0.2% phosphoric acid. Detection: UV (250 nm).

[5] = Toxicity in normal nude mice; type: in vivo, athymic nude mice; conditions: for body weight course: dEpoB 25 mg/kg daily i.p. for 4 days; for mice died / survived: desoxyepothilone B 25 mg/kg QDx4 i.p.
Description: For in vivo studies, paclitaxel in Cremophor-EtOH was further diluted with DMSO as needed. Vinblastine sulfate (Velban) (Eli Lilly & Co. Indianapolis, Ind.), and doxorubicin or adriamycin HCl (DX or Adr) (Pharmacia, Columbus, Ohio) in saline were diluted with DMSO as needed. DMSO was used as a vehicle for epothilones. Each mouse received ≦40 μL DMSO in all experiments.
The toxicity of EpoB and dEpoB was compared in normal athymic nude mice on the daily i.p. schedule. EpoB at 0.6 mg/kg, QDX4, i.p. led to lethality in all eight mice. […] Similar leukopenia was found with paclitaxel. Some obstructive fecal mass in the large intestine was noted following Epo treatments in the preliminary study.

[6] = test system: Human Lymphoblastic Leukemia CCRF-CEM; assay: CCRF-CEM xenograft in nude mice, i.v. 6 h infusion; type: in vivo
[7] = test system: B16 Melanoma; type: in vivo, B6D2F1 mice
[8] = dEpoB 30 mg/kg Q2D x 6, Taxol 15 mg/kg Q2D x 6
[9] = UL3-C Ovary, dEpoB 30 mg/kg Q2D x 5, Taxol 15 mg/kg Q2D x 5
[10] = dEpoB 30, Taxol 20 mg/kg, i.v. infusions on day 19,21,23,25,27
[11] = CCRF/Taxol Leukemia, dEpoB 30 mg/kg Q2D x 6, Taxol 15 mg/kg Q2D x 6
[12] = CCRF/CEM Leukemia, dEpoB 30 mg/kg Q2D x 5, Taxol 15 mg/kg Q2D x 5
[13] = 10 mg/kg QD × 8 from day 1, day 5
[14] = 10 mg/kg QD × 8 from day 1, day 7
[15] = 10 mg/kg QD × 8 from day 1, day 9
[16] = 10 mg/kg QD × 8 from day 1, day 11

Structure (SMILES): C/C1=C/C[C@@H](/C(C)=C/c2csc(C)n2)OC(=O)C[C@H](O)C(C)(C)C(=O)[C@H](C)[C@@H](O)[C@@H](C)CCC1 [Desoxyepothilone B, desoxyepothilone B]
- Lowest Average Tumor Size (T/C) [1, 8]: 0.02 T/C
- Tumor Disappearance [1, 8]: 0
- Therapeutic Effects dEpoB vs Taxol ([1]; dEpoB 30 mg/kg Q2D x 6 vs Taxol 15 mg/kg Q2D x 6): ≦
- Therapeutic effect Rank Order ([1]; i.v. infusion): Taxol ® ≧ dEpoB
- Lowest Average Tumor Size (T/C) [2, 9]: 0.03 T/C
- Tumor Disappearance [2, 9]: 0
- Therapeutic Effects dEpoB vs Taxol ([2]; UL3-C Ovary, dEpoB 30 mg/kg Q2D x 5 vs Taxol 15 mg/kg Q2D x 5): ≧
- Average Body Weight (change), Day 33 [2, 10]: -2.7 g
- Average Body Weight Change, Day 27 [2, 10]: -1.5 g
- Average Body Weight Change, Day 29 [2, 10]: -4.0 g
- Average Body Weight Change, Day 31 [2, 10]: -3.6 g
- Average Tumor Size (T/C), Day 27 [2, 10]: 0.19 T/C
- Average Tumor Size (T/C), Day 29 [2, 10]: 0.13 T/C
- Average Tumor Size (T/C), Day 31 [2, 10]: 0.03 T/C
- Average Tumor Size (T/C), Day 33 [2, 10]: 0.03 T/C
- Average Body Weight, Day 19 ([2]; initial weight, dEpoB 30, Taxol 20 mg/kg, i.v. infusions on day 19,21,23,25,27): 30.0 g
- therapeutic outcome ([3]; 6 hr i.v. infusion): full cure
- Therapeutic effect Rank Order ([3]; CCRF-CEM/Taxol, i.v. infusion): dEpoB >>> Taxol ®
- Lowest Average Tumor Size (T/C) [3, 11]: 0 T/C
- Tumor Disappearance [3, 11]: 3/3
- Therapeutic Effects dEpoB vs Taxol ([3]; CCRF/Taxol Leukemia, dEpoB 30 mg/kg Q2D x 6 vs Taxol 15 mg/kg Q2D x 6): >>>
- half-life in human plasma [4]: about 75 hours
- Died ([5]; 25 mg/kg QD × 4, 6 mice): 0
- Disappearance Duration ([5]; 25 mg/kg QD × 4, 6 mice): 0
- Number of mice died ([5]; 25 mg/kg, QD × 4, i.p., 6 mice): 0
- decrease in lymphocytes ([5]; EpoB 0.6 mg/kg or dEpoB 25 mg/kg, QDx4, i.p., preliminary): 43%
- body weight course ([5]; listed as dEpoB): maintained approximately the same average body weight
- body weight course ([5]; listed as desoxyepothilone B): no reduction in average body weight
- mice died / survived ([5]; 6 mice): all six mice survived
- mice died / survived ([5]; 6 mice, listed as dEpoB): zero of six
- Therapeutic effect Rank Order ([6]; CCRF-CEM, i.v. infusion): dEpoB ≈ Taxol ®
- Lowest Average Tumor Size (T/C) [6, 12]: 0 T/C
- Tumor Disappearance [6, 12]: 2/2
- Therapeutic Effects dEpoB vs Taxol ([6]; CCRF/CEM Leukemia, dEpoB 30 mg/kg Q2D x 5 vs Taxol 15 mg/kg Q2D x 5): ≅
- # Mice Died ([7]; 10 mg/kg QD × 8 from day 1): 0/6
- Average weight change ([7]; 10 mg/kg QD × 8 from day 1, day 3): -0.7 g
- Average Tumor Volume (T/C) [7, 13]: 0.23
- Average weight change [7, 13]: -0.9 g
- Average Tumor Volume (T/C) [7, 14]: 0.22
- Average weight change [7, 14]: -1.1 g
- Average Tumor Volume (T/C) [7, 15]: 0.51
- Average weight change [7, 15]: -1.5 g
- Average Tumor Volume (T/C) [7, 16]: 0.28
- Average weight change [7, 16]: -0.3 g
- mice died ([7]; 10 mg/kg QDx8 from day 1 (FIG. 44)): 0 of 8
- # Mice Died ([7]; 20 mg/kg QD1-4,7-8): 0/6
- Average weight change ([7]; 20 mg/kg QD1-4,7-8, day 3): -1.3 g
- Average Tumor Volume (T/C) ([7]; 20 mg/kg QD1-4,7-8, day 5): 0.59
- Average weight change ([7]; 20 mg/kg QD1-4,7-8, day 5): -2.2 g
- Average Tumor Volume (T/C) ([7]; 20 mg/kg QD1-4,7-8, day 7): 0.63
- Average weight change ([7]; 20 mg/kg QD1-4,7-8, day 7): -1.3 g
- Average Tumor Volume (T/C) ([7]; 20 mg/kg QD1-4,7-8, day 9): 0.58
- Average weight change ([7]; 20 mg/kg QD1-4,7-8, day 9): -1.6 g
- Average weight change ([7]; 20 mg/kg QD1-4,7-8, day 11): -0.8 g
- Therapeutic effect Rank Order ([7]; mouse, in vivo, ip): dEpoB > Taxol ® >> EpoB
